Patent publication US6444217B1, “Drug delivery devices, and methods of use” (University of Washington, priority 2000, dated 2002)

Tested on: 3T3-L1 adipocyte cells
Test: ability of released insulin to regulate 14C-deoxyglucose uptake
Type: cell-based
Details: 14C-deoxyglucose uptake by cultured 3T3-L1 adipocyte cells

With insulin the “biological activity of released insulin” value was “retains its biological activity”.
